Data as given in ChEMBL document CHEMBL1149402, “New potential antibacterials: a synthetic route to N-aryloxazolidinone/3-aryltetrahydroisoquinoline hybrids” (2006).

Tested on: Staphylococcus aureus
Assay: Antibacterial activity against methicillin-susceptible Staphylococcus aureus ATCC 29213
Type: functional

Br.CC(=O)NC[C@H]1CN(c2ccc(C3Cc4cc(O)c(O)cc4CN3)cc2)C(=O)O1 (stereo partly specified)
MIC: > 64 µg/mL
